Where two headings read alike, the source gives them in different places.
System: human cytotoxic T-lymphocyte responses
Assay: Inhibition of human CTL responses (mixed leukocyte-tumor cultures, HT-144 melanoma, ^51 Cr release)
Assay type: cell-based
Conditions: for inhibition at 10 µM / inhibition at 1 µM / inhibition at 0.1 µM: Homo sapiens, T-lymphocyte, read-out: Inhibition of CTL activity (%); for inhibition at 10 µM / inhibition at 1 µM / inhibition at 0.1 µM / CTL activity (% specific ^51 Cr release): 0.1% ethanol
Summary of the method: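 Effector CTLs came from 6-day mixed leukocyte–tumor cultures of donor PBMC with irradiated stimulator cells plus 1×10^-5 M hydrocortisone. Effectors were added to adhered ^51Cr-labelled target cells overnight at 37 °C; specific ^51Cr release gave percent inhibition, mean±SEM of triplicates.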

[1] = Test 1, donor I, 1 × 10^-5 molar, effector to target 6:1
[2] = Test 1, donor I, 1 × 10^-6 molar, effector to target 6:1
[3] = Test 2, donor II, 1 × 10^-6 molar, effector to target 6:1
[4] = Test 2, donor II, 1 × 10^-7 molar, effector to target 6:1
[5] = Test 1, donor I, 1 × 10^-7 molar, effector to target 6:1
[6] = Test 2, donor III, 1 × 10^-6 molar, effector to target 32:1
[7] = Test 2, donor III, 1 × 10^-7 molar, effector to target 32:1
[8] = Test 3, donor IV, 1 × 10^-6 molar, effector to target 24:1
[9] = Test 3, donor IV, 1 × 10^-7 molar, effector to target 24:1

C=C1/C(=C\C=C2/CCC[C@]3(C)[C@@H]([C@H](C)C[C@H](O)CC(C)(C)O)CC[C@@H]23)C[C@@H](O)C[C@@H]1O [1α,23S,25-(OH)3 --D3, 1α,23S,25-Trihydroxycholecalciferol]
inhibition at 10 µM [1]: 95%
inhibition at 1 µM [2]: 72%
inhibition at 1 µM [3]: 62%
inhibition at 0.1 µM [4]: 73%
suppression of generation of human cytotoxic T-lymphocytes (in words) (Table IV): suppressed the generation of human cytotoxic T-lymphocytes
CTL activity (% specific ^51 Cr release) [1]: 2 ± 3 % specific ^51 Cr release
CTL activity (% specific ^51 Cr release) [2]: 12 ± 3 % specific ^51 Cr release
CTL activity (% specific ^51 Cr release) [3]: 14 ± 7 % specific ^51 Cr release
CTL activity (% specific ^51 Cr release) [4]: 10 ± 2 % specific ^51 Cr release

C=C1/C(=C\C=C2/CCC[C@]3(C)[C@@H]([C@H](C)/C=C/[C@H](C)[C@](C)(O)CO)CC[C@@H]23)C[C@@H](O)C[C@@H]1O [1α,25S,26-(OH)3 --D2, 1α,25S,26-Trihydroxyergocalciferol]
inhibition at 1 µM [2]: 54%
inhibition at 0.1 µM [5]: 76%
inhibition at 1 µM [6]: 100%
inhibition at 0.1 µM [7]: 87%
inhibition at 1 µM [8]: 82%
inhibition at 0.1 µM [9]: 40%
CTL activity (% specific ^51 Cr release) [2]: 17 ± 4 % specific ^51 Cr release
CTL activity (% specific ^51 Cr release) [5]: 9 ± 2 % specific ^51 Cr release
CTL activity (% specific ^51 Cr release) [6]: -4 ± 2 % specific ^51 Cr release
CTL activity (% specific ^51 Cr release) [7]: 7 ± 2 % specific ^51 Cr release
CTL activity (% specific ^51 Cr release) [8]: 10 ± 2 % specific ^51 Cr release
CTL activity (% specific ^51 Cr release) [9]: 34 ± 10 % specific ^51 Cr release

C=C1/C(=C\C=C2/CCC[C@]3(C)[C@@H]([C@H](C)C=CC[C@](C)(O)CO)CC[C@@H]23)C[C@@H](O)C[C@@H]1O [1α,25S,26-(OH)3 --Δ^22 -D3, 1α,25S,26-Trihydroxy-Δ^22-cholecalciferol]
inhibition at 10 µM [1]: 63%
inhibition at 1 µM [2]: 70%
inhibition at 1 µM [3]: 49%
inhibition at 0.1 µM [4]: 97%
CTL activity (% specific ^51 Cr release) [1]: 16 ± 4 % specific ^51 Cr release
CTL activity (% specific ^51 Cr release) [2]: 13 ± 8 % specific ^51 Cr release
CTL activity (% specific ^51 Cr release) [3]: 19 ± 4 % specific ^51 Cr release
CTL activity (% specific ^51 Cr release) [4]: 1 ± 4 % specific ^51 Cr release

From US4749710A, “Immunosuppressive agents” (priority 1985, dated 1988)
